The numbers were not newly measured in patent US6372197B1, “Methods and compositions using norastemizole in combination with leukotriene inhibitors” (Sepracor Inc., priority 1998, dated 2002), which cites them from elsewhere.

For data set [1] the following is noted: 373 patients.
The test system of another data set is LTB4 formation. The note with it: ex vivo, several species.
For data set [2] the following is noted: in some patients.
Data set [3] deals with leukotriene (LTH4, LTC4, LTD4, and LTE4) formation. As to conditions: in vitro.
In data set [4] the test system is leukotriene-dependent smooth muscle contractions. As to conditions: in vitro, human airways.
For data set [5] the test system is unchanged. The note with it: in vitro, guinea pig airways.
For data set [6] the following is noted: in vivo.
For data set [7], the system named is contractile activity of three leukotrienes. As to conditions: in vitro, conducting airway smooth muscle from laboratory animals.
Data set [8] has the same test system. As to conditions: in vitro, conducting airway smooth muscle from humans.
The subject of data set [9] is LTD4-induced influx of eosinophils. As to conditions: in vivo.
Data set [10] concerns LTD4-induced increases in cutaneous vascular permeability. The note with it: in vivo.

Where two headings read alike, the source gives them in different places.

With `CC(c1cc2ccccc2s1)N(O)C(N)=O` (racemic) [Zileuton, (±)-1-(1-Benso[b]thien-2-ylethyl)-1-hydroxyurea], the figures for the efficacy entry in [1] (400 mg) and in data set [1] (600 mg four times daily) were “failed to do so” and “required to provide efficacy”, respectively. In the data set on LTB4 formation, the “inhibition of LTB4 formation” value is recorded as “inhibitor”. The adverse effects reported entry in data set [2] was “headache, pain, asthenia, dyspepsia, nausea, and myalgia”. Besides, the “inhibition of leukotriene (LTH4, LTC4, LTD4, and LTE4) formation” value in [3] is on record as “inhibit”. For the same compound, the “inhibition of leukotriene-dependent smooth muscle contractions” value in data set [4] and in [5] was “inhibits” each time.
As for `COc1ccc(CCN2CCC(Nc3nc4ccccc4n3Cc3ccc(F)cc3)CC2)cc1` [Astemizole], in [6], the absorption result is reported as “well absorbed” and the metabolism entry is recorded as “extensively metabolized”.
Regarding `COc1cc(C(=O)NS(=O)(=O)c2ccccc2C)ccc1Cc1cn(C)c2ccc(NC(=O)OC3CCCC3)cc12` [Zafirlukast, 4-(5-cyclopentyloxy-carbonylamino-1-methyl-indol-8-ylmethyl)-3-methoxy-N-o-tolylsulfonylbenzamide], the “antagonism of contractile activity of three leukotrienes” value in [7] and in data set [8] was “antagonized” each time. In addition, the “inhaled LTD4-induced influx of eosinophils into animal lungs” value in [9] is “inhibited”. The adverse effects reported result in data set [2] was “headache, infection, nausea, diarrhea, pain, asthenia, abdominal pain, dizziness, myalgia, fever, vomiting, SGPT elevation, and dyspepsia”. In addition, the “intradermal LTD4-induced increases in cutaneous vascular permeability” value in data set [10] is given as “prevented”.
